The structures appear in SMILES notation. ≈ marks a conversion by molar mass, not a printed value.

A short description of series [1]: Cytotoxicity activity against human A549 cells assessed as cell viability at 2 to 64 ug/ml incubated for 24 hrs by MTT assay relative to control. To be noted: read-out: Activity. It counts as cell-based. (In general: Formazan colour is commonly taken as a measure of viable cells.)
The next series deals with Klebsiella pneumoniae. Nature of the series: Antibacterial activity against Klebsiella pneumoniae incubated for 24 hrs by two fold serial dilution method. Format: functional.
A further series concerns Escherichia coli. The experiment in a line: Antibacterial activity against Escherichia coli incubated for 24 hrs by two fold serial dilution method. It counts as functional.
A further series deals with Acinetobacter baumannii. The experiment in a line: Antibacterial activity against Acinetobacter baumannii incubated for 24 hrs by two fold serial dilution method. It counts as functional.
Series [2] has as its system Staphylococcus aureus. The experiment in a line: Antibacterial activity against Staphylococcus aureus ATCC 29213 incubated for 24 hrs by two fold serial dilution method. It counts as functional. Conditions: ATCC 29213, 24 h.
Series [3] deals with Staphylococcus aureus. The experiment in a line: Antibacterial activity against methicillin-resistant Staphylococcus aureus N315 incubated for 24 hrs by two fold serial dilution method. Format: functional. To be noted: N315, 24 h.
The test system of a further series is Pseudomonas aeruginosa. Nature of the series: Antibacterial activity against Pseudomonas aeruginosa incubated for 24 hrs by two fold serial dilution method. It counts as functional.
For a further series, the system named is Enterococcus faecalis. The experiment in a line: Antibacterial activity against Enterococcus faecalis incubated for 24 hrs by two fold serial dilution method. It counts as functional.

Consider `COc1cccc2c1C(=O)c1c(O)c3c(c(O)c1C2=O)C[C@@](O)(C(=O)CO)C[C@@H]3O[C@H]1C[C@H](N)[C@H](O)[C@H](C)O1` [DOXORUBICIN], for which the viability at 24 h in series [1] is < 75%.
`CC(=O)/C(=C/c1cn(CC(=O)N2CCN(Cc3ccc(F)cc3)CC2)c2cc(Cl)ccc12)n1cc([N+](=O)[O-])nc1C`: the MIC came to 512 µg/mL (≈ 884 µM) in the series on Klebsiella pneumoniae; 512 µg/mL (≈ 884 µM) against Escherichia coli; 512 µg/mL (≈ 884 µM) against Acinetobacter baumannii; 512 µg/mL (≈ 884 µM) in the series on Staphylococcus aureus [2]; 512 µg/mL (≈ 884 µM) with Staphylococcus aureus [3]; 128 µg/mL (≈ 221 µM) against Pseudomonas aeruginosa. The compound further showed an MIC with Enterococcus faecalis of 2 µg/mL (≈ 3.45 µM).
In the case of `CCn1cc(C(=O)O)c(=O)c2cc(F)c(N3CCNCC3)cc21` [NORFLOXACIN], the MIC against Klebsiella pneumoniae was determined as 4 µg/mL (≈ 12.5 µM); in the series with Escherichia coli it was 16 µg/mL (≈ 50.1 µM); against Acinetobacter baumannii it was 8 µg/mL (≈ 25.1 µM); against Staphylococcus aureus [2] it was 2 µg/mL (≈ 6.26 µM); against Staphylococcus aureus [3] it was 8 µg/mL (≈ 25.1 µM); against Pseudomonas aeruginosa, 2 µg/mL (≈ 6.26 µM). The same compound showed an MIC with Enterococcus faecalis of 4 µg/mL (≈ 12.5 µM).
Turning to `CC(=O)/C(=C/c1cn(CC(=O)N2CCCCC2)c2cc(Cl)ccc12)n1cc([N+](=O)[O-])nc1C`, the MIC in the series on Klebsiella pneumoniae turned out to be 64 µg/mL (≈ 136 µM); with Escherichia coli, 64 µg/mL (≈ 136 µM); in the series on Acinetobacter baumannii, 512 µg/mL (≈ 1090 µM); in the series on Staphylococcus aureus [2] it was 512 µg/mL (≈ 1090 µM); in the series with Staphylococcus aureus [3], 64 µg/mL (≈ 136 µM); in the series with Pseudomonas aeruginosa, 256 µg/mL (≈ 545 µM). Inhibition of growth against Enterococcus faecalis (MIC) required 4 µg/mL (≈ 8.51 µM).
On to `CCN(CC)C(=O)Cn1cc(/C=C(/C(C)=O)n2cc([N+](=O)[O-])nc2C)c2ccc(Cl)cc21`, for which the MIC amounted to 512 µg/mL (≈ 1120 µM) in the series on Klebsiella pneumoniae; 512 µg/mL (≈ 1120 µM) against Escherichia coli; 512 µg/mL (≈ 1120 µM) with Acinetobacter baumannii; 512 µg/mL (≈ 1120 µM) against Staphylococcus aureus [2]; 512 µg/mL (≈ 1120 µM) in the series on Staphylococcus aureus [3]; 128 µg/mL (≈ 280 µM) in the series with Pseudomonas aeruginosa. In the series on Enterococcus faecalis, this compound returned an MIC of 1 µg/mL (≈ 2.18 µM).
Consider `CC(=O)Cn1cc(/C=C(/C(C)=O)n2cc([N+](=O)[O-])nc2C)c2ccccc21`, for which the MIC in the series on Klebsiella pneumoniae amounted to 2 µg/mL (≈ 5.46 µM); in the series on Escherichia coli, 8 µg/mL (≈ 21.8 µM); against Acinetobacter baumannii, 128 µg/mL (≈ 349 µM); with Staphylococcus aureus [2], 256 µg/mL (≈ 699 µM); against Staphylococcus aureus [3] it was 0.5 µg/mL (≈ 1.36 µM); in the series on Pseudomonas aeruginosa, 512 µg/mL (≈ 1400 µM). Further, in the series with Enterococcus faecalis, the MIC worked out at 16 µg/mL (≈ 43.7 µM).
Take `CC(=O)/C(=C/c1cn(CC(=O)N2CCCCC2)c2cc(C)ccc12)n1cc([N+](=O)[O-])nc1C`: the MIC in the series with Klebsiella pneumoniae was determined as 32 µg/mL (≈ 71.2 µM); in the series with Escherichia coli, 256 µg/mL (≈ 570 µM); in the series with Acinetobacter baumannii, 256 µg/mL (≈ 570 µM); against Staphylococcus aureus [2], 16 µg/mL (≈ 35.6 µM); with Staphylococcus aureus [3], 1 µg/mL (≈ 2.22 µM); against Pseudomonas aeruginosa, 32 µg/mL (≈ 71.2 µM). The same compound returned an MIC in the series with Enterococcus faecalis of 128 µg/mL (≈ 285 µM).
Consider `CC(=O)/C(=C/c1cn(CC(=O)N(C(C)C)C(C)C)c2ccccc12)n1cc([N+](=O)[O-])nc1C`, for which the MIC in the series on Klebsiella pneumoniae was 16 µg/mL (≈ 35.4 µM); against Escherichia coli, 64 µg/mL (≈ 142 µM); in the series on Acinetobacter baumannii, 512 µg/mL (≈ 1130 µM); in the series with Staphylococcus aureus [2], 512 µg/mL (≈ 1130 µM); in the series on Staphylococcus aureus [3] it was 1 µg/mL (≈ 2.21 µM); in the series with Pseudomonas aeruginosa, 512 µg/mL (≈ 1130 µM). This compound returned a minimal inhibitory concentration (MIC) in the series on Enterococcus faecalis of 64 µg/mL (≈ 142 µM).
Turning to `CC(=O)/C(=C/c1cn(CC(=O)N2CCN(Cc3ccc(Cl)cc3Cl)CC2)c2ccccc12)n1cc([N+](=O)[O-])nc1C`, the MIC stood at 128 µg/mL (≈ 215 µM) against Klebsiella pneumoniae; 512 µg/mL (≈ 860 µM) in the series with Escherichia coli; 256 µg/mL (≈ 430 µM) against Acinetobacter baumannii; 256 µg/mL (≈ 430 µM) in the series with Staphylococcus aureus [2]; 64 µg/mL (≈ 107 µM) in the series with Staphylococcus aureus [3]; 256 µg/mL (≈ 430 µM) against Pseudomonas aeruginosa. Also, the MIC against Enterococcus faecalis stood at 128 µg/mL (≈ 215 µM).
With `C#CCn1cc(/C=C(/C(C)=O)n2cc([N+](=O)[O-])nc2C)c2ccccc21`, the minimal inhibitory concentration (MIC) against Klebsiella pneumoniae was 128 µg/mL (≈ 367 µM); in the series on Escherichia coli, 512 µg/mL (≈ 1470 µM); in the series on Acinetobacter baumannii, 128 µg/mL (≈ 367 µM); against Staphylococcus aureus [2] it was 128 µg/mL (≈ 367 µM); against Staphylococcus aureus [3] it was 2 µg/mL (≈ 5.74 µM); against Pseudomonas aeruginosa, 128 µg/mL (≈ 367 µM). Further, it took 32 µg/mL (≈ 91.9 µM) to inhibit growth against Enterococcus faecalis (MIC).
With `CC(=O)/C(=C/c1cn(CC(=O)N2CCOCC2)c2ccccc12)n1cc([N+](=O)[O-])nc1C`, the MIC against Klebsiella pneumoniae came out at 16 µg/mL (≈ 36.6 µM); in the series on Escherichia coli, 32 µg/mL (≈ 73.2 µM); in the series with Acinetobacter baumannii, 256 µg/mL (≈ 585 µM); in the series on Staphylococcus aureus [2], 64 µg/mL (≈ 146 µM); with Staphylococcus aureus [3], 2 µg/mL (≈ 4.57 µM); in the series on Pseudomonas aeruginosa it was 128 µg/mL (≈ 293 µM). In the series with Enterococcus faecalis, this compound had an MIC of 32 µg/mL (≈ 73.2 µM).
With `CC(=O)/C(=C/c1cn(CC(=O)N2CCCC2)c2ccccc12)n1cc([N+](=O)[O-])nc1C`, the MIC in the series on Klebsiella pneumoniae stood at 16 µg/mL (≈ 38 µM); with Escherichia coli, 8 µg/mL (≈ 19 µM); with Acinetobacter baumannii, 1 µg/mL (≈ 2.37 µM); with Staphylococcus aureus [2], 64 µg/mL (≈ 152 µM); in the series on Staphylococcus aureus [3], 64 µg/mL (≈ 152 µM); with Pseudomonas aeruginosa, 2 µg/mL (≈ 4.75 µM). The compound further gave an MIC against Enterococcus faecalis of 64 µg/mL (≈ 152 µM).
For `CC(=O)/C(=C/c1cn(CC(=O)N(C)c2ccccc2)c2ccccc12)n1cc([N+](=O)[O-])nc1C`, the minimum inhibitory concentration (MIC) is 32 µg/mL (≈ 69.9 µM) in the series on Klebsiella pneumoniae; 32 µg/mL (≈ 69.9 µM) against Escherichia coli; 128 µg/mL (≈ 280 µM) against Acinetobacter baumannii; 128 µg/mL (≈ 280 µM) in the series on Staphylococcus aureus [2]; 1 µg/mL (≈ 2.19 µM) in the series on Staphylococcus aureus [3]; 128 µg/mL (≈ 280 µM) against Pseudomonas aeruginosa. The MIC against Enterococcus faecalis turned out to be 64 µg/mL (≈ 140 µM).
On to `CCN(CC)C(=O)Cn1cc(/C=C(/C(C)=O)n2cc([N+](=O)[O-])nc2C)c2ccc(C)cc21`, for which the MIC in the series with Klebsiella pneumoniae stood at 512 µg/mL (≈ 1170 µM); against Escherichia coli, 128 µg/mL (≈ 293 µM); against Acinetobacter baumannii, 512 µg/mL (≈ 1170 µM); with Staphylococcus aureus [2], 16 µg/mL (≈ 36.6 µM); with Staphylococcus aureus [3] it was 4 µg/mL (≈ 9.14 µM); in the series with Pseudomonas aeruginosa, 128 µg/mL (≈ 293 µM). In the series on Enterococcus faecalis, the MIC was found to be 64 µg/mL (≈ 146 µM).
Consider `CC(=O)/C(=C/c1cn(CC(=O)N2CCN(Cc3ccc(F)cc3)CC2)c2cc(C)ccc12)n1cc([N+](=O)[O-])nc1C`, for which the MIC amounted to 512 µg/mL (≈ 917 µM) in the series with Klebsiella pneumoniae; 512 µg/mL (≈ 917 µM) with Escherichia coli; 512 µg/mL (≈ 917 µM) in the series on Acinetobacter baumannii; 512 µg/mL (≈ 917 µM) with Staphylococcus aureus [2]; 2 µg/mL (≈ 3.58 µM) in the series on Staphylococcus aureus [3]; 128 µg/mL (≈ 229 µM) against Pseudomonas aeruginosa. In the series on Enterococcus faecalis, this compound registered an MIC of 64 µg/mL (≈ 115 µM).
With `C=CCn1cc(/C=C(/C(C)=O)n2cc([N+](=O)[O-])nc2C)c2ccccc21`, the MIC came to 32 µg/mL (≈ 91.3 µM) against Klebsiella pneumoniae; 32 µg/mL (≈ 91.3 µM) against Escherichia coli; 16 µg/mL (≈ 45.7 µM) in the series with Acinetobacter baumannii; 4 µg/mL (≈ 11.4 µM) in the series with Staphylococcus aureus [2]; 32 µg/mL (≈ 91.3 µM) in the series with Staphylococcus aureus [3]; 16 µg/mL (≈ 45.7 µM) against Pseudomonas aeruginosa. In the series with Enterococcus faecalis, this compound registered an MIC of 64 µg/mL (≈ 183 µM).
For `NC1CCN(c2c(F)cc3c(=O)c(C(=O)O)cn(C4CC4)c3c2Cl)C1` (stereo not given) [CLINAFLOXACIN], the MIC in the series on Klebsiella pneumoniae was 32 µg/mL (≈ 87.5 µM); in the series on Escherichia coli, 64 µg/mL (≈ 175 µM); in the series with Acinetobacter baumannii, 16 µg/mL (≈ 43.7 µM); in the series with Staphylococcus aureus [2], 0.5 µg/mL (≈ 1.37 µM); in the series with Staphylococcus aureus [3], 16 µg/mL (≈ 43.7 µM); against Pseudomonas aeruginosa, 32 µg/mL (≈ 87.5 µM). The compound further yielded a minimum inhibitory concentration (MIC) in the series with Enterococcus faecalis of 2 µg/mL (≈ 5.47 µM).
For `CC(=O)/C(=C/c1cn(CC(=O)N(C2CCCCC2)C2CCCCC2)c2ccccc12)n1cc([N+](=O)[O-])nc1C`, the minimal inhibitory concentration (MIC) against Klebsiella pneumoniae was found to be 8 µg/mL (≈ 15 µM); in the series with Escherichia coli it was 32 µg/mL (≈ 60.2 µM); against Acinetobacter baumannii it was 512 µg/mL (≈ 963 µM); against Staphylococcus aureus [2], 512 µg/mL (≈ 963 µM); in the series with Staphylococcus aureus [3], 2 µg/mL (≈ 3.76 µM); against Pseudomonas aeruginosa, 512 µg/mL (≈ 963 µM). Moreover, the MIC against Enterococcus faecalis was 128 µg/mL (≈ 241 µM).

A word on the MIC: it is the lowest concentration that inhibits growth of the organism. A higher MIC goes with weaker potency.

For the origin of these results see ChEMBL document CHEMBL4351025, “Indole-nitroimidazole conjugates as efficient manipulators to decrease the genes expression of methicillin-resistant Staphylococcus aureus” (Eur J Med Chem, 2019).
